Data from patent US6344474B1, “Use of central cannabinoid receptor antagonists for regulating appetence” (Sanofi-Synthelabo, priority 1997, dated 2002).

Legend:
[1] = system: Male C 57 BL 6 mice; experiment: Effect of SR 141716 A on the consumption of an alcohol solution in mice; format: in vivo, mouse; settings: 6 hours; for Amount of alcohol consumed in g on D4: 10% alcohol solution
Description: TEST No. 2: Effect of SR 141716 A on the consumption of an alcohol solution in mice
Male C 57 BL 6 mice (Iffa-Credo) are isolated on the day of their arrival in an animal housing under a reverse cycle (night from 10 am to 10 pm) with 2 bottles filled with water. After 1 week, one of the bottles of water is replaced with a bottle filled with a 10% alcohol solution for 6 hours of the test. Each day, 30 minutes before the bottle of alcohol is introduced, the mice are treated subcutaneously with SR 141716 A. The amounts of alcohol and water consumed are measured after 6 hours. The test is repeated for 4 days.

[2] = system: Male Sprague-Dawley rats; experiment: Effect of SR 141716 A on the intake of a sucrose solution in rats; format: in vivo, rat; settings: for Consumption of sucrose solution in g, 1 hour / Consumption of sucrose solution in g, 2 hours / Consumption of sucrose solution in g, 3 hours / Consumption of sucrose solution in g, 4 hours: 5% sucrose solution; for Consumption of sucrose solution in g, 1 hour: T0+1 hour; for Consumption of sucrose solution in g, 2 hours: T0+2 hours; for Consumption of sucrose solution in g, 3 hours: T0+3 hours; for Consumption of sucrose solution in g, 4 hours: T0+4 hours
Description: TEST No. 1: Effect of SR 141716 A on the intake of a sucrose solution in rats
The experiment is performed according to W. C. Lynch et al., Physiol. Behav., 1993, 54, 877-880.
Male Sprague-Dawley rats weighing 190 to 210 g are under a normal light cycle (from 7 am to 7 pm) and receive water and food ad libitum.
For 6 days, between 11 am and 3 pm, the food and the water bottles are withdrawn and the rats are given a 5% sucrose solution to drink.
Rats drinking less than 3 g of sucrose solution are eliminated.
On the seventh day the test is carried out according to the following procedure:
9 am: withdrawal of food,
10 am: oral administration of SR 141716 A,
11 am=T0: introduction of bottles containing a weighed sucrose solution , T0+1 hour, T0+2 hours, T0+3 hours, T0+4 hours: measurement of the sucrose consumption by weighing of the bottles.

How did the “Amount of alcohol consumed in g on D4” value ([1]; 0.1 mg/kg sc) turn out when `Cc1c(C(=O)NN2CCCCC2)nn(-c2ccc(Cl)cc2Cl)c1-c1ccc(Cl)cc1` [SR 141716 A, N-piperidino-5-(4-chlorophenyl)-1-(2,4-dichlorophenyl)-4-methylpyrazole-3-carboxamide] was run?
The value was 1.4 ± 0.2 g.

And the “Amount of water consumed” value ([1]; 0.1 mg/kg sc)?
The value was 1.1 ± 0.3 g.

What about the “Amount of alcohol consumed in g on D4” value ([1]; 0.3 mg/kg sc) of the same molecule?
Its value is 1.3 ± 0.2 g.

And the “Amount of water consumed” value ([1]; 0.3 mg/kg sc)?
Its value is 1.1 ± 0.3 g.

And the “Amount of alcohol consumed in g on D4” value ([1]; 1 mg/kg sc)?
Its value is 1.1 ± 0.2 g.

What about the “Amount of water consumed” value ([1]; 1 mg/kg sc) of the same molecule?
The value was 1.3 ± 0.1 g.

What about the “Amount of alcohol consumed in g on D4” value ([1]; 3 mg/kg sc, 3 mg/kg) of the same molecule?
The value was 1.0 ± 0.2 g.

And the “Amount of water consumed” value ([1]; 3 mg/kg sc, 3 mg/kg)?
The value was 1.6 ± 0.3 g.

And the “Consumption of sucrose solution in g, 1 hour” value (“Consumption … 1 hour” for short) ([2]; 0.3 mg/kg po)?
Its value is 5.18 g.

What about the “Consumption of sucrose solution in g, 2 hours” value (“Consumption … 2 hours” for short) ([2]; 0.3 mg/kg po) of the same molecule?
The value was 9.18 g.

What about the “Consumption of sucrose solution in g, 3 hours” value (from here on “Consumption … 3 hours”) ([2]; 0.3 mg/kg po) of the same molecule?
Its value is 12.49 g.

What about the “Consumption of sucrose solution in g, 4 hours” value (from here on “Consumption … 4 hours”) ([2]; 0.3 mg/kg po) of the same molecule?
Its value is 16.10 g.

And the “Consumption … 1 hour” value ([2]; 1 mg/kg po)?
The value was 3.27 ± g.

And the “Consumption … 2 hours” value ([2]; 1 mg/kg po)?
The value was 3.61 ± g.

And the “Consumption … 3 hours” value ([2]; 1 mg/kg po)?
Its value is 5.65 ± g.

What about the “Consumption … 4 hours” value ([2]; 1 mg/kg po) of the same molecule?
Its value is 7.43 ± g.

What about the “Consumption … 1 hour” value ([2]; 3 mg/kg po) of the same molecule?
The value was 2.95 ± g.

What about the “Consumption … 2 hours” value ([2]; 3 mg/kg po) of the same molecule?
Its value is 5.41 ± g.

What about the “Consumption … 3 hours” value ([2]; 3 mg/kg po) of the same molecule?
Its value is 6.96 ± g.

And the “Consumption … 4 hours” value ([2]; 3 mg/kg po)?
Its value is 8.58 ± g.

And the “Dose at or above which consumption of aqueous sugar solution is very considerably reduced” value ([2]; oral administration)?
The value was ≥ 0.3 mg/kg.
